Laboratory results as given in PubChem BioAssay (NCI).
Where “and” joins values, the source holds several entries; their conditions need not be identical. Equal entries are not always repeated.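 Five concentrations, 48 hours, 96-well plates. The concentration for 50% growth inhibition is given as GI50. TGI: total growth inhibition.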

Experiments:
Experiment in all cases: NCI tumour cell line growth inhibition, 48 h
DLD-1 colon = tested on: DLD-1 colon
DMS 273 small cell lung = tested on: DMS 273 small cell lung
HOP-18 NSCLC = tested on: HOP-18 NSCLC
KM20L2 colon = tested on: KM20L2 colon
LXFL 529 NSCLC = tested on: LXFL 529 NSCLC
SNB-78 CNS = tested on: SNB-78 CNS
XF 498 CNS = tested on: XF 498 CNS
M19-MEL melanoma = tested on: M19-MEL melanoma

O=C1C(Cl)C(c2ccc([N+](=O)[O-])cc2)N1n1cnc2ccccc2c1=O (stereo not drawn) showed a TGI (DLD-1 colon) greater than 100 µM, a TGI (DMS 273 small cell lung) greater than 100 µM and a TGI (HOP-18 NSCLC) greater than 100 µM. It also gave a TGI (KM20L2 colon) greater than 100 µM, a TGI (LXFL 529 NSCLC) greater than 100 µM and a TGI (SNB-78 CNS) of 88.1 µM. The TGI (XF 498 CNS) was greater than 100 µM.

For O=C(CSc1nnc(-c2ccc(N=Cc3ccc(Cl)cc3)cc2)o1)Nc1cccc([N+](=O)[O-])c1, the TGI (DMS 273 small cell lung) was greater than 100 µM, the TGI (HOP-18 NSCLC) was greater than 100 µM and the TGI (KM20L2 colon) was greater than 100 µM. The TGI (LXFL 529 NSCLC) was greater than 100 µM, the TGI (M19-MEL melanoma) was greater than 100 µM and the TGI (SNB-78 CNS) was greater than 100 µM.

CC(=O)Nc1ccc(C(=O)n2[nH]c(C)c(/C=C3\C(=O)C=Cc4ccccc43)c2=O)cc1 was tested, and the TGI (DLD-1 colon) was greater than 100 µM, the TGI (DMS 273 small cell lung) was greater than 100 µM and the TGI (HOP-18 NSCLC) was greater than 100 µM. It also gave a TGI (M19-MEL melanoma) greater than 100 µM, a TGI (SNB-78 CNS) greater than 100 µM and a TGI (XF 498 CNS) greater than 100 µM.

COc1cc(CC(=O)c2cc3c(cc2-c2ccccc2)OCO3)cc(OC)c1OC was tested, and the TGI (DLD-1 colon) was greater than 100 µM, the TGI (DMS 273 small cell lung) was greater than 100 µM and the TGI (HOP-18 NSCLC) was greater than 100 µM. For the same compound, the TGI (KM20L2 colon) was greater than 100 µM, the TGI (LXFL 529 NSCLC) was greater than 100 µM and the TGI (SNB-78 CNS) was greater than 100 µM. For the same compound, the TGI (XF 498 CNS) was 77.3 µM.

O=C1C(=Cc2ccc([N+](=O)[O-])o2)C(=O)N(CCc2ccccc2)S(=O)(=O)N1CCc1ccccc1 showed a TGI (DLD-1 colon) of 34.1 µM, a TGI (DMS 273 small cell lung) greater than 100 µM and a TGI (HOP-18 NSCLC) greater than 100 µM. It also gave a TGI (KM20L2 colon) greater than 100 µM, a TGI (LXFL 529 NSCLC) of 30.6 µM and a TGI (M19-MEL melanoma) of 31.7 µM. It also gave a TGI (SNB-78 CNS) of 94.9 µM and a TGI (XF 498 CNS) of 34.9 µM.

NC(CS)C(=O)NCCNc1ccc(NCCNC(=O)C(N)CS)c2c1C(=O)c1c(O)ccc(O)c1C2=O (stereo not drawn) was tested, and the GI50 (DLD-1 colon) was 0.0638 µM, the TGI (DLD-1 colon) was 1.03 µM and 0.762 µM and the GI50 (HOP-18 NSCLC) was 0.0307 µM. The TGI (HOP-18 NSCLC) was 3.9 µM and 0.484 µM, the GI50 (KM20L2 colon) was 0.195 µM and the TGI (KM20L2 colon) was 1.49 µM and 1.37 µM. For the same compound, the GI50 (LXFL 529 NSCLC) was 0.0673 µM, the TGI (LXFL 529 NSCLC) was 0.927 µM and 0.631 µM and the GI50 (M19-MEL melanoma) was 0.138 µM. For the same compound, the TGI (M19-MEL melanoma) was 0.863 µM and 1.01 µM and the TGI (XF 498 CNS) was 0.463 µM.

CCCCc1c2c(nc3c1CCCC3=O)CCCC2 showed a TGI (DMS 273 small cell lung) greater than 100 µM, a TGI (KM20L2 colon) greater than 100 µM and a TGI (LXFL 529 NSCLC) greater than 100 µM. For the same compound, the TGI (M19-MEL melanoma) was greater than 100 µM and the TGI (XF 498 CNS) was greater than 100 µM.

With C[C@]12CCC(=O)C=C1CC[C@@H]1C2CC[C@@]2(C)C1CC[C@@H]2OC(=O)C12OC1CCC2=O (stereo partly drawn) the TGI (DMS 273 small cell lung) was 31.1 µM, the TGI (HOP-18 NSCLC) was 31.7 µM and the TGI (KM20L2 colon) was 34.3 µM. It also gave a TGI (LXFL 529 NSCLC) of 28 µM, a TGI (M19-MEL melanoma) of 30.3 µM and a TGI (SNB-78 CNS) of 33.9 µM. For the same compound, the TGI (XF 498 CNS) was 27.9 µM.

With Brc1ccc(C[N+]23CN4CN(CN(C4)C2)C3)cc1 the TGI (DMS 273 small cell lung) was 52.9 µM, the TGI (KM20L2 colon) was greater than 100 µM and the TGI (M19-MEL melanoma) was greater than 100 µM. The TGI (SNB-78 CNS) was greater than 100 µM.

O=C1NC2OC(CO)C(O)C(O)C2O1 (stereo not drawn) gave a TGI (DLD-1 colon) greater than 100 µM, a TGI (DMS 273 small cell lung) greater than 100 µM and a TGI (HOP-18 NSCLC) greater than 100 µM. The TGI (KM20L2 colon) was greater than 100 µM, the TGI (LXFL 529 NSCLC) was greater than 100 µM and the TGI (M19-MEL melanoma) was greater than 100 µM. For the same compound, the TGI (SNB-78 CNS) was greater than 100 µM.

Work on COc1ccc(C2NC3=C(CCCC3)N2)cc1 yielded a TGI (DLD-1 colon) greater than 100 µM, a TGI (DMS 273 small cell lung) greater than 100 µM and a TGI (KM20L2 colon) of 80.8 µM. It also gave a TGI (LXFL 529 NSCLC) greater than 100 µM, a TGI (M19-MEL melanoma) greater than 100 µM and a TGI (SNB-78 CNS) greater than 100 µM. The TGI (XF 498 CNS) was greater than 100 µM.

Nc1ccn(CCCC(c2ccccc2)P(=O)(O)O)c(=O)n1 (stereo not drawn) gave a TGI (DLD-1 colon) greater than 100 µM, a TGI (DMS 273 small cell lung) greater than 100 µM and a TGI (HOP-18 NSCLC) greater than 100 µM. The TGI (KM20L2 colon) was greater than 100 µM, the TGI (LXFL 529 NSCLC) was greater than 100 µM and the TGI (M19-MEL melanoma) was greater than 100 µM. The TGI (SNB-78 CNS) was greater than 100 µM.

COc1ccc(N2C(=O)C3C=CC(n4[nH]c(=O)n(Cc5ccccc5)c4=O)CC3C2=O)cc1 (stereo not drawn) gave a TGI (DLD-1 colon) greater than 100 µM, a TGI (DMS 273 small cell lung) greater than 100 µM and a TGI (HOP-18 NSCLC) greater than 100 µM. It also gave a TGI (KM20L2 colon) greater than 100 µM, a TGI (LXFL 529 NSCLC) greater than 100 µM and a TGI (M19-MEL melanoma) greater than 100 µM. It also gave a TGI (SNB-78 CNS) greater than 100 µM and a TGI (XF 498 CNS) greater than 100 µM.

Work on CCOC(=O)C1=C(O)c2ccc(OC)cc2C(=O)C1=O yielded a TGI (DLD-1 colon) greater than 100 µM, a TGI (DMS 273 small cell lung) greater than 100 µM and a TGI (HOP-18 NSCLC) of 66.5 µM. The TGI (KM20L2 colon) was greater than 100 µM, the TGI (M19-MEL melanoma) was 44.4 µM and the TGI (SNB-78 CNS) was greater than 100 µM.

Compound COc1ccc(/C=C(\C2=NC(=O)CS2)c2nc3ccccc3[nH]2)cc1 has a TGI (DLD-1 colon) greater than 100 µM, a TGI (DMS 273 small cell lung) greater than 100 µM and a TGI (KM20L2 colon) greater than 100 µM. For the same compound, the TGI (LXFL 529 NSCLC) was greater than 100 µM, the TGI (M19-MEL melanoma) was greater than 100 µM and the TGI (SNB-78 CNS) was greater than 100 µM. For the same compound, the TGI (XF 498 CNS) was 81.5 µM.

Work on COc1ccc(OC)c(-c2cc(=O)c3cc4c(cc3[nH]2)OCO4)c1 yielded a TGI (DLD-1 colon) greater than 100 µM, a TGI (DMS 273 small cell lung) of 20.9 µM and a TGI (HOP-18 NSCLC) greater than 100 µM. For the same compound, the TGI (KM20L2 colon) was 23.7 µM, the TGI (LXFL 529 NSCLC) was 49.6 µM and the TGI (M19-MEL melanoma) was greater than 100 µM. For the same compound, the TGI (SNB-78 CNS) was greater than 100 µM and the TGI (XF 498 CNS) was 35.9 µM.

For O=P(Nc1cccc(Cl)c1)(Oc1ccccc1)N(CCCl)CCCl (stereo not drawn), the TGI (DLD-1 colon) was 30.5 µM, the TGI (DMS 273 small cell lung) was 27.3 µM and the TGI (HOP-18 NSCLC) was 47.2 µM. It also gave a TGI (KM20L2 colon) of 26.7 µM, a TGI (LXFL 529 NSCLC) of 24.6 µM and a TGI (M19-MEL melanoma) of 32.8 µM. It also gave a TGI (SNB-78 CNS) of 43.8 µM.
